Source: ChEMBL document CHEMBL4396971, “Discovery of potent and orally bioavailable indazole-based glucagon receptor antagonists for the treatment of type 2 diabetes” (Bioorg Med Chem Lett, 2019)
The source made the active and inactive calls. The rule behind the calls is not given here.

System: not listed separately
Assay: AUClast in dog at 2 mg/kg, iv or 10 mg/kg, po
Format: ADME, organism-based, Canis lupus familiaris
Conditions: in vivo

| AUC(0-t) [µM·h] | SMILES |
| --- | --- |
| 544 | Cc1cc2c(cnn2[C@@H](CC(C)C)c2ccc(C(=O)NCCC(=O)O)cc2)cc1-c1ccc(C(F)(F)F)cc1Cl |

System: not listed separately
Assay: Cmax in C57 mouse at 5 mg/kg, iv or 20 mg/kg, po
Format: ADME, organism-based
Conditions: in vivo

| Cmax [µM] | SMILES |
| --- | --- |
| 15.6 | Cc1cc2c(cnn2[C@@H](CC(C)C)c2ccc(C(=O)NCCC(=O)O)cc2)cc1-c1ccc(C(F)(F)F)cc1Cl |

System: not listed separately
Assay: Cmax in Sprague-Dawley rat at 2 mg/kg, iv or 10 mg/kg, po
Format: ADME, organism-based
Conditions: in vivo

| Cmax [µM] | SMILES |
| --- | --- |
| 0.5 | Cc1cc2c(cnn2[C@@H](CC(C)C)c2ccc(C(=O)NCCC(=O)O)cc2)cc1-c1ccc(C(F)(F)F)cc1Cl |

System: not listed separately
Assay: Cmax in dog at 2 mg/kg, iv or 10 mg/kg, po
Format: ADME, organism-based, Canis lupus familiaris
Conditions: in vivo

| Cmax [µM] | SMILES |
| --- | --- |
| 34.1 | Cc1cc2c(cnn2[C@@H](CC(C)C)c2ccc(C(=O)NCCC(=O)O)cc2)cc1-c1ccc(C(F)(F)F)cc1Cl |

System: not listed separately
Assay: Oral bioavailability in C57 mouse at 20 mg/kg
Format: ADME, organism-based
Conditions: in vivo

| bioavailability [%] | SMILES |
| --- | --- |
| 121 | Cc1cc2c(cnn2[C@@H](CC(C)C)c2ccc(C(=O)NCCC(=O)O)cc2)cc1-c1ccc(C(F)(F)F)cc1Cl |

System: not listed separately
Assay: Oral bioavailability in Sprague-Dawley rat at 10 mg/kg
Format: ADME, organism-based
Conditions: in vivo

| bioavailability [%] | SMILES |
| --- | --- |
| 35.4 | Cc1cc2c(cnn2[C@@H](CC(C)C)c2ccc(C(=O)NCCC(=O)O)cc2)cc1-c1ccc(C(F)(F)F)cc1Cl |

System: not listed separately
Assay: Oral bioavailability in dog at 10 mg/kg
Format: ADME, organism-based, Canis lupus familiaris
Conditions: in vivo

| bioavailability [%] | SMILES |
| --- | --- |
| 57.3 | Cc1cc2c(cnn2[C@@H](CC(C)C)c2ccc(C(=O)NCCC(=O)O)cc2)cc1-c1ccc(C(F)(F)F)cc1Cl |

System: not listed separately
Assay: Protein binding in human plasma at 1 uM
Format: ADME, cell-free
Conditions: read-out: PPB

| fraction unbound at 1 µM | SMILES |
| --- | --- |
| 0.0001 | Cc1cc2c(cnn2[C@@H](CC(C)C)c2ccc(C(=O)NCCC(=O)O)cc2)cc1-c1ccc(C(F)(F)F)cc1Cl |

Target: T1, Cytochrome P450 3A4 (Homo sapiens, UniProt P08684)
T1 sequence (P08684 whole entry): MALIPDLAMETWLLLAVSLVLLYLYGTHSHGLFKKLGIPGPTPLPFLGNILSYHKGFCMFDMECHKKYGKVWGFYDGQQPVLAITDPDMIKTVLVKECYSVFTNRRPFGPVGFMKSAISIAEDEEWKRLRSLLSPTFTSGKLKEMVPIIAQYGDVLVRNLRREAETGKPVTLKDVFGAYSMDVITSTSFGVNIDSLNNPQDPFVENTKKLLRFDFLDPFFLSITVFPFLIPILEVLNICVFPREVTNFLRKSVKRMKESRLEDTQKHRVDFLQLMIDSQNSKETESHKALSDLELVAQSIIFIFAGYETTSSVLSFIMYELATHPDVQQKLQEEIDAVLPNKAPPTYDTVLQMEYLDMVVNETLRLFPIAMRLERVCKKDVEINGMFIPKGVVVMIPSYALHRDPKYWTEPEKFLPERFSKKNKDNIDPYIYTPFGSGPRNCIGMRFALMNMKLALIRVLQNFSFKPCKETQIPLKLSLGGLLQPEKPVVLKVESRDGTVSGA
Assay: Inhibition of CYP3A4 (unknown origin) using testosterone as substrate
Format: ADME
Conditions: not given

| IC50 [µM] | SMILES |
| --- | --- |
| > 10 | Cc1cc2c(cnn2[C@@H](CC(C)C)c2ccc(C(=O)NCCC(=O)O)cc2)cc1-c1ccc(C(F)(F)F)cc1Cl |

Target: T1, Cytochrome P450 3A4
Assay: Inhibition of CYP3A4 (unknown origin) using midazolam as substrate
Format: ADME
Conditions: not given

| IC50 [µM] | SMILES |
| --- | --- |
| > 10 | Cc1cc2c(cnn2[C@@H](CC(C)C)c2ccc(C(=O)NCCC(=O)O)cc2)cc1-c1ccc(C(F)(F)F)cc1Cl |

Target: Cytochrome P450 2C19 (Homo sapiens, UniProt P33261)
Sequence (P33261 whole entry): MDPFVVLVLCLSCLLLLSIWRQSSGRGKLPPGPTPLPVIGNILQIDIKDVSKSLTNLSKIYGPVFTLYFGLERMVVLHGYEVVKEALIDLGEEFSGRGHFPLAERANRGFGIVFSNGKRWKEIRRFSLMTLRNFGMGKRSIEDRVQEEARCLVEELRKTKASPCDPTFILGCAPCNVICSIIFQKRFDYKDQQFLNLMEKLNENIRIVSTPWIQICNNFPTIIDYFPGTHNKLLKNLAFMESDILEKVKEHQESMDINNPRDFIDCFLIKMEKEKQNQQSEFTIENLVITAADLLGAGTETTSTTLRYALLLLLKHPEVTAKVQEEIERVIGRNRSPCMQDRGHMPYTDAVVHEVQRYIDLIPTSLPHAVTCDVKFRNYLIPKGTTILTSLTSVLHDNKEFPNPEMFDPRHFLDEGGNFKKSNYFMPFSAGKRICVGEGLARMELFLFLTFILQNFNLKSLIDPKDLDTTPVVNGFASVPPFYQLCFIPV
Assay: Inhibition of CYP2C19 (unknown origin) using S-Mephenytoin as substrate
Format: ADME
Conditions: not given

| IC50 [µM] | SMILES |
| --- | --- |
| > 10 | Cc1cc2c(cnn2[C@@H](CC(C)C)c2ccc(C(=O)NCCC(=O)O)cc2)cc1-c1ccc(C(F)(F)F)cc1Cl |

Target: Cytochrome P450 2C9 (Homo sapiens, UniProt P11712)
Sequence (P11712 whole entry): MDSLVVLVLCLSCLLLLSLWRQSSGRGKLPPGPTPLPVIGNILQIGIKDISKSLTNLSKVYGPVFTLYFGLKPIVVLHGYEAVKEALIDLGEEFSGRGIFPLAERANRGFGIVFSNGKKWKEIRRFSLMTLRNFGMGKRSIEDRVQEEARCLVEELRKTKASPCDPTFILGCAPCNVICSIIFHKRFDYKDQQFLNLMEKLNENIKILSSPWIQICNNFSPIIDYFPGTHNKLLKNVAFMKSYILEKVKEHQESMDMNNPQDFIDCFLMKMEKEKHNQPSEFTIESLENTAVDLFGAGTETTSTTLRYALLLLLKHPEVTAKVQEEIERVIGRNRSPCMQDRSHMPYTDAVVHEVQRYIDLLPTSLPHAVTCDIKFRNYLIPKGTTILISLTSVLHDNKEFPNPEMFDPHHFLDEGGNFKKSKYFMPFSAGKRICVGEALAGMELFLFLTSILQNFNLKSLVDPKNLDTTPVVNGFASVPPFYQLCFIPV
Assay: Inhibition of CYP2C9 (unknown origin) using tolbutamide as substrate
Format: ADME
Conditions: not given

| IC50 [µM] | SMILES |
| --- | --- |
| > 10 | Cc1cc2c(cnn2[C@@H](CC(C)C)c2ccc(C(=O)NCCC(=O)O)cc2)cc1-c1ccc(C(F)(F)F)cc1Cl |

Target: T2, Cytochrome P450 1A2 (Homo sapiens, UniProt P05177)
T2 sequence (P05177 whole entry): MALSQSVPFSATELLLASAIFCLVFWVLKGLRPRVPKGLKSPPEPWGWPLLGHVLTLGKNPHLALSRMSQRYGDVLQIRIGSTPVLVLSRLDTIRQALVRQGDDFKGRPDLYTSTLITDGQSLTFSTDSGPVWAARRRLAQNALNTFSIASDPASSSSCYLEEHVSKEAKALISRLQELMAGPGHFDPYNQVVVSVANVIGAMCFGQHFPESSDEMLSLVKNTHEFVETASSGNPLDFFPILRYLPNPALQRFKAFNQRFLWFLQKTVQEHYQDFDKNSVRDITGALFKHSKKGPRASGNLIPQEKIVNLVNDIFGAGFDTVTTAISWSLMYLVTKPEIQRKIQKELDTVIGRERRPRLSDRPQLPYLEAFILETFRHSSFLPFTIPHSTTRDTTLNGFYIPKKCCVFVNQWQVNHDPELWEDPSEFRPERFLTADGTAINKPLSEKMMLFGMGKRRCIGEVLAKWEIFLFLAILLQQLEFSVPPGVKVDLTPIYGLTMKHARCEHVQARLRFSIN
Assay: Inhibition of CYP1A2 (unknown origin) using phenacetin as substrate
Format: ADME
Conditions: not given

| IC50 [µM] | SMILES |
| --- | --- |
| > 10 | Cc1cc2c(cnn2[C@@H](CC(C)C)c2ccc(C(=O)NCCC(=O)O)cc2)cc1-c1ccc(C(F)(F)F)cc1Cl |

Target: Cytochrome P450 2D6 (Homo sapiens, UniProt P10635)
Sequence (P10635 whole entry): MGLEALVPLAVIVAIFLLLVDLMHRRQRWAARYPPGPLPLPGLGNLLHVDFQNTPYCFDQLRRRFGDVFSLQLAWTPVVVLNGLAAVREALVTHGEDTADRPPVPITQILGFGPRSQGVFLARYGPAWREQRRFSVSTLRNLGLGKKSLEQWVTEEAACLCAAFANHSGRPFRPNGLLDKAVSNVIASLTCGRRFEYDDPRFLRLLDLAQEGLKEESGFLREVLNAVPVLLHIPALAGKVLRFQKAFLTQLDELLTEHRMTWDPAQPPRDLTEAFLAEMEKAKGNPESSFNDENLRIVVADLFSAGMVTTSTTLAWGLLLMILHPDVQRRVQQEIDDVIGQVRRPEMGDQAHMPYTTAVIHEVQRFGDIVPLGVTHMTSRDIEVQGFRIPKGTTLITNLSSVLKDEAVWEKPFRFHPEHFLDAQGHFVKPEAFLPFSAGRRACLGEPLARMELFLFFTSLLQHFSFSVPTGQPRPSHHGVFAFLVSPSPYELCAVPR
Assay: Inhibition of CYP2D6 (unknown origin) using dextromethorphan as substrate
Format: ADME
Conditions: not given

| IC50 [µM] | SMILES |
| --- | --- |
| > 10 | Cc1cc2c(cnn2[C@@H](CC(C)C)c2ccc(C(=O)NCCC(=O)O)cc2)cc1-c1ccc(C(F)(F)F)cc1Cl |

Target: not listed separately
Assay: Antagonist activity at GCGR in dog hepatocytes assessed as inhibition of glucagon-induced cAMP by LANCE TR-FRET assay
Format: cell-based, Canis lupus familiaris
Conditions: not given

| Ki [µM] | SMILES |
| --- | --- |
| 0.02 | Cc1cc2c(cnn2[C@@H](CC(C)C)c2ccc(C(=O)NCCC(=O)O)cc2)cc1-c1ccc(C(F)(F)F)cc1Cl |

System: Canis familiaris
Assay: Antidiabetic activity in Beagle dog assessed as reduction in blood glucose level at 10 mg/kg, po administered via gavage as single dose 90 mins prior to glucagon challenge measured up to 60 mins post glucagon challenge by glucometer analysis
Format: functional, organism-based
Conditions: Canis lupus familiaris

| SMILES | inhibition |
| --- | --- |
| Cc1cc2c(cnn2[C@@H](CC(C)C)c2ccc(C(=O)NCCC(=O)O)cc2)cc1-c1ccc(C(F)(F)F)cc1Cl | Active |

System: Canis familiaris
Assay: Antidiabetic activity in Beagle dog assessed as reduction in blood glucose AUC administered orally via gavage as single dose 90 mins prior to glucagon challenge by glucometer analysis
Format: functional, organism-based
Conditions: Canis lupus familiaris

| SMILES | inhibition |
| --- | --- |
| Cc1cc2c(cnn2[C@@H](CC(C)C)c2ccc(C(=O)NCCC(=O)O)cc2)cc1-c1ccc(C(F)(F)F)cc1Cl | Dose-dependent effect |

System: Canis familiaris
Assay: Antidiabetic activity in Beagle dog assessed as reduction in blood glucose AUC at 10 mg/kg, po administered via gavage as single dose 90 mins prior to glucagon challenge by glucometer analysis
Format: functional, organism-based
Conditions: Canis lupus familiaris

| SMILES | inhibition |
| --- | --- |
| Cc1cc2c(cnn2[C@@H](CC(C)C)c2ccc(C(=O)NCCC(=O)O)cc2)cc1-c1ccc(C(F)(F)F)cc1Cl | Active |
